Measured values taken from PubChem BioAssay (NCI).
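Results reflect a 48-hour exposure of cells in 96-well plates to compound at five concentrations. The concentration for 50% growth inhibition is given as GI50. TGI marks complete inhibition of growth.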

Experiments:
Assay in all cases: NCI-60 cell line screen, 48 h
RPMI-8226 leukemia = tested on: RPMI-8226 leukemia
SNB-19 CNS = tested on: SNB-19 CNS
UO-31 renal = tested on: UO-31 renal
OVCAR-4 ovarian = tested on: OVCAR-4 ovarian
MALME-3M melanoma = tested on: MALME-3M melanoma
IGROV1 ovarian = tested on: IGROV1 ovarian
SK-OV-3 ovarian = tested on: SK-OV-3 ovarian
UACC-62 melanoma = tested on: UACC-62 melanoma
PC-3 prostate = tested on: PC-3 prostate
SK-MEL-2 melanoma = tested on: SK-MEL-2 melanoma

Compound	GI50 (RPMI-8226 leukemia)	TGI (RPMI-8226 leukemia)	GI50 (SNB-19 CNS)	TGI (SNB-19 CNS)	GI50 (UO-31 renal)	TGI (UO-31 renal)	GI50 (OVCAR-4 ovarian)	TGI (OVCAR-4 ovarian)	GI50 (MALME-3M melanoma)	TGI (MALME-3M melanoma)	GI50 (IGROV1 ovarian)	TGI (IGROV1 ovarian)	GI50 (SK-OV-3 ovarian)	TGI (SK-OV-3 ovarian)	GI50 (UACC-62 melanoma)	TGI (UACC-62 melanoma)	GI50 (PC-3 prostate)	TGI (PC-3 prostate)	GI50 (SK-MEL-2 melanoma)	TGI (SK-MEL-2 melanoma)
O=C(/C=C/c1ccc(C(F)(F)F)cc1)Nc1ccc(C=C2c3ccccc3C(=O)c3ccccc32)cc1	1.15 µM	85.9 µM	8.61 µM	> 100 µM	8.47 µM	> 100 µM	5.26 µM	> 100 µM	8.91 µM	> 100 µM	33.2 µM	> 100 µM	12.7 µM	86.7 µM	3.04 µM	63.7 µM	1.84 µM	> 100 µM	4.11 µM	30.6 µM
CCc1ccccc1NC(=O)/C=C/c1ccccc1	–	> 100 µM	–	> 100 µM	–	–	–	> 100 µM	–	> 100 µM	–	–	–	> 100 µM	–	> 100 µM	–	> 100 µM	–	> 100 µM
Cc1cc(Cl)ccc1OCC(=O)Nc1nc(N)nc(N)n1	–	> 100 µM	–	> 100 µM	–	> 100 µM	–	> 100 µM	–	> 100 µM	–	> 100 µM	–	> 100 µM	–	> 100 µM	–	> 100 µM	–	> 100 µM
COC(=O)C(CCC(=O)CCl)N1C(=O)c2ccccc2C1=O (stereo not given)	–	20.7 µM	–	37.1 µM	–	24.2 µM	–	27.4 µM	–	11.9 µM	–	26.9 µM	–	31.5 µM	–	26 µM	–	26.5 µM	–	21.9 µM
CN1CCN(Cc2ccc(NC(=O)c3cncc(C#Cc4cnc(N)cc4C#N)c3)cc2C(F)(F)F)CC1	3.83 µM	21 µM	6.27 µM	18.9 µM	2 µM	6.95 µM	–	–	0.264 µM	0.943 µM	1.16 µM	5.62 µM	2.63 µM	9.31 µM	0.877 µM	3.92 µM	3.5 µM	19 µM	1.15 µM	3.44 µM
CN(C)CCNC(=O)c1ccc(-c2nc3ccc4[nH]ncc4c3c3c2C2CCC3C2)cc1 (stereo not given)	1.35 µM	4.6 µM	2.69 µM	9.81 µM	2.03 µM	5.18 µM	1.6 µM	5.53 µM	1.67 µM	3.96 µM	1.52 µM	6.2 µM	0.348 µM	4.28 µM	0.898 µM	3.72 µM	1.24 µM	7.22 µM	1.55 µM	3.74 µM
CCCCCN(CCCCC)CC(O)c1cc(Cl)ccc1OC (stereo not given)	4.81 µM	22.7 µM	14.6 µM	50.1 µM	3.37 µM	15.5 µM	3.17 µM	16 µM	6.29 µM	21.3 µM	3 µM	15.1 µM	12.8 µM	29.5 µM	11.1 µM	25.4 µM	11.3 µM	26.8 µM	3.22 µM	14.2 µM
CCN1CCN(Cc2ccc(NC(=O)Nc3nc4ccc(Oc5ccnc(C(=O)NC)c5)cc4s3)cc2C(F)(F)F)CC1	2.1 µM	5.34 µM	2.33 µM	4.86 µM	1.83 µM	3.4 µM	–	–	1.2 µM	2.67 µM	1.76 µM	3.62 µM	1.82 µM	3.36 µM	1.7 µM	3.28 µM	1.87 µM	3.58 µM	1.75 µM	3.51 µM
C1=C/COCc2cc(ccc2OCCN2CCCC2)Nc2nccc(n2)-c2ccc(o2)COC/1	2.29 µM	5.21 µM	2.93 µM	13.5 µM	1.06 µM	7.06 µM	2.33 µM	10.4 µM	1.4 µM	3.69 µM	0.626 µM	6.57 µM	2.44 µM	7.53 µM	1.42 µM	3.08 µM	1.17 µM	21.4 µM	1.46 µM	4 µM
Cc1ccc2nc(-c3ccc(OCC(=O)N=Nc4c(O)[nH]c5ccccc45)cc3)[nH]c2c1	3.44 µM	17.8 µM	4.01 µM	15.9 µM	82.4 µM	> 100 µM	1.95 µM	4.09 µM	2.1 µM	4.6 µM	3.61 µM	16.1 µM	17.5 µM	37 µM	4.38 µM	16.8 µM	1.74 µM	3.65 µM	3.71 µM	14.7 µM
O=C(O)/C=C\C(=O)Nc1ccccn1	–	> 100 µM	–	> 100 µM	–	> 100 µM	–	> 100 µM	–	> 100 µM	–	> 100 µM	–	> 100 µM	–	> 100 µM	–	> 100 µM	–	> 100 µM
O=[N+]([O-])c1cccc(-c2nc(-c3ccccc3)c(-c3ccccc3)[nH]2)c1	–	> 100 µM	–	> 100 µM	–	> 100 µM	–	–	–	> 100 µM	–	> 100 µM	–	> 100 µM	–	> 100 µM	–	> 100 µM	–	> 100 µM
COC(=O)c1cc2c(cc1Cl)SC1=NN(C)S(=O)N1S2(=O)=O (stereo not given)	> 100 µM	> 100 µM	> 100 µM	> 100 µM	70.2 µM	> 100 µM	> 100 µM	> 100 µM	> 100 µM	> 100 µM	> 100 µM	> 100 µM	> 100 µM	> 100 µM	> 100 µM	> 100 µM	> 100 µM	> 100 µM	> 100 µM	> 100 µM
CN1CCN(CCOc2ccc(-c3cnc4c(-c5cccc(F)c5)cnn4c3)cc2)CC1	1.85 µM	5.25 µM	1.72 µM	3.8 µM	1.47 µM	3.37 µM	1.93 µM	5.75 µM	1.66 µM	3.23 µM	1.82 µM	3.8 µM	–	–	1.73 µM	3.29 µM	1.92 µM	4.39 µM	1.98 µM	4.27 µM
CN(C)c1nc(=NCc2ccco2)ss1	–	36.3 µM	–	> 80.4 µM	–	50.1 µM	–	51.7 µM	–	54 µM	–	> 100 µM	–	> 87 µM	–	> 70.5 µM	–	30.5 µM	–	> 64.8 µM
Cc1cc(C)c2c(n1)sc1c(N)ncnc12	> 25 µM	> 25 µM	> 25 µM	> 25 µM	12.9 µM	> 25 µM	> 25 µM	> 25 µM	> 25 µM	> 25 µM	19.7 µM	> 25 µM	> 25 µM	> 25 µM	> 25 µM	> 25 µM	> 25 µM	> 25 µM	> 25 µM	> 25 µM
Cn1c(=O)c2[nH]c(SCCN3CCOCC3)nc2n(C)c1=S	–	> 100 µM	–	> 100 µM	–	> 100 µM	–	> 100 µM	–	> 100 µM	–	> 100 µM	–	> 100 µM	–	> 100 µM	–	> 100 µM	–	> 100 µM
CCCn1cnc2c(SCC(=O)O)nc(N)nc21	–	> 100 µM	–	> 100 µM	–	> 100 µM	–	> 100 µM	–	> 100 µM	–	> 100 µM	–	> 100 µM	–	> 100 µM	–	> 100 µM	–	> 100 µM
CC[C@@]1(OC(=O)CN)C(=O)OCc2c1cc1n(c2=O)Cc2c-1nc1cc3c(cc1c2CCl)OCO3	0.0374 µM	0.597 µM	< 0.01 µM	13.7 µM	< 0.01 µM	1.44 µM	0.381 µM	11.3 µM	0.0501 µM	4.44 µM	0.234 µM	15.1 µM	0.375 µM	> 31.6 µM	< 0.01 µM	2.28 µM	0.113 µM	21.1 µM	1.24 µM	5.04 µM
O=C(Nc1ccc(F)cc1F)c1cc(Cl)ccc1O	0.689 µM	3.83 µM	1.45 µM	> 100 µM	1.15 µM	6.18 µM	0.636 µM	> 100 µM	0.782 µM	4.76 µM	1.49 µM	> 100 µM	0.722 µM	4.85 µM	0.489 µM	3.03 µM	1.88 µM	41.2 µM	1.16 µM	4.93 µM
COc1ccc(NC(=O)/C=C(C)/C=C/C=C(C)/C=C/C2=C(C)CCCC2(C)C)cc1	2.33 µM	7.76 µM	14.7 µM	28.1 µM	10.8 µM	25.4 µM	5.85 µM	19 µM	38.9 µM	65.4 µM	–	–	17 µM	30.7 µM	10.7 µM	22.9 µM	3.18 µM	11.8 µM	13.3 µM	26.2 µM
c1cc(-c2nnc(SSc3ncnc4nc[nH]c34)o2)ccn1	1.32 µM	> 100 µM	78.4 µM	> 100 µM	0.742 µM	> 100 µM	0.519 µM	> 100 µM	2.08 µM	> 100 µM	–	–	0.45 µM	> 100 µM	2.02 µM	> 100 µM	3.48 µM	> 100 µM	–	–
